Assay results taken from paper PMC5687811 (ACS chemical neuroscience, 2016).
“And” between values parts separate entries of the source, which are not always exact repeats. Identical values can stand only once. “Also recorded” adds a separate entry of the source. Like-named read-outs stand apart in the source and are kept apart here. [ ]: non-standard residue; d: D form. dPhe(4-I) = N[C@H](Cc1ccc(I)cc1)C(=O)O

Experiments:
[1] = system: mMC4R; conditions: antagonist/inverse agonist, ref [40],[41], cited from earlier work
[2] = system: females, ovariectomized or estradiol treated; conditions: cited from earlier work; for effect of ovariectomy or estradiol treatment on food intake after ligand: ref [13],[21],[34]
[3] = ref [13],[24]; cited from earlier work
[4] = system: MC3R and MC4R knockout mice; conditions: cited from earlier work
[5] = system: female and male rats; conditions: ref [13]; cited from earlier work
[6] = system: mouse (m)MC3R; conditions: HEK293 cells, cited from earlier work
[7] = system: wild type female and male littermate mice; experiment: Locomotor activity; type: in vivo, mice (mixed C57BL/6J and 129/Sv); conditions: for total ambulatory activity (cumulative beam breaks): ICV
[8] = system: mMC5R; conditions: read-out: EC50 at mMC5R; agonist; ref [22],[23]; cited from earlier work
[9] = system: mMC1R; conditions: read-out: EC50 at mMC1R; agonist; ref [22],[23]; cited from earlier work
[10] = system: wild type female and male littermate mice; experiment: Cumulative food intake after ICV administration, TSE metabolic cages; type: in vivo, mice (mixed C57BL/6J and 129/Sv)
[11] = Solubility / precipitation of SKY2-23-7; type: physicochemical
[12] = system: mMC4R; conditions: HEK293 cells, ref [22],[23] (Doering et. al.), cited from earlier work
[13] = system: wild type female and male littermate mice; experiment: Respiratory exchange ratio; type: in vivo, mice (mixed C57BL/6J and 129/Sv)
[14] = system: male and female mice; type: in vivo, mice (mixed C57BL/6J and 129/Sv); conditions: 5 nmol ICV, conventional cages, pilot
[15] = system: wild type female and male littermate mice; experiment: Energy expenditure after ICV administration, TSE metabolic cages; type: in vivo, mice (mixed C57BL/6J and 129/Sv)
[16] = system: male and female rats; conditions: ICV, ref [5] Maranon and coworkers in 2014, cited from earlier work

## AGRP: endogenous MC3R antagonist and MC4R antagonist/inverse agonist AGRP (SSRRCVRLHESCLGQQVPCCDPCATCYCRFFNAFCYCRKLGTAMNPCSRT; UniProt O00253 83-132, looked up)
[1]
  pA2 at mMC4R: 9.4
[1]; read-out: Ki at mMC4R
  Ki: 0.0004 to 0.0025 µM
[2]; females, ref [13]
  effect of ovariectomy on ligand-dependent energy expenditure: ovariectomy can blunt
[2]
  effect of ovariectomy or estradiol treatment on food intake after ligand: minimal effects on food intake
[3]
  energy expenditure: decrease energy expenditure
  respiratory exchange ratio (RER): increase respiratory exchange ratio
[4]; ICV, MC3R and MC4R male knockout mice, ref [8],[12]
  food intake: increased food intake
[5]
  energy expenditure, female versus male: reduces energy expenditure in female rats more than in male rats
  food intake: food intake is unaffected

## Ac-W[dPhe(4-I)]RW-NH2 [SKY2-23-7]
[6]; Schild analysis, antagonist, ref [22],[23] (Doering et. al.)
  pA2 at mMC3R: 5.43±0.16
[6]; up to 100 µM, ref [22],[23] (Doering et. al.)
  agonist activity at mMC3R: minimal agonist activity; also recorded: lacks the mMC3R partial agonism
[7]; female, 2.5 nmol ICV, 5 hours post administration
  hourly activity: Increased activity
[7]; female, 2.5 nmol ICV, 24 hours post administration
  hourly activity: significant decrease in activity
[7]; female, 5 nmol ICV, light cycle, p<0.05
  total activity: significant decrease in total activity
[7]; female, other doses ICV, dark cycle (0–14 hrs), p=0.28
  total activity: no other doses resulted in a significant changes in total activity
[7]; female, other doses ICV, light cycle (14–26 hrs), p=0.65
  total activity: no other doses resulted in a significant changes in total activity
[7]; male, 7.5 nmol ICV, time points 8, 15, 18, and 24 hours
  hourly activity: significant increases in activity
[7]; male, dark cycle (0–14 hrs), p=0.39
  total ambulatory activity (cumulative beam breaks): no significant effect
[7]; male, light cycle (14–26 hrs), p=0.64
  total ambulatory activity (cumulative beam breaks): no significant effect
[8]
  EC50: 2.8 ± 1.1 µM
[9]
  EC50: 2 ± 0.6 µM
[10]; female, 2.5 nmol ICV, 6–24 hours post-administration
  cumulative food intake: significant increase in food intake
[10]; female, 2.5 nmol, 1 nmol, and 0.5 nmol ICV
  cumulative food intake, dose response: A dose response pattern is observed
[10]; female, 5 nmol ICV
  cumulative food intake: no significant effect
[10]; female, 7.5 nmol ICV
  cumulative food intake: no significant effect
[10]; male, 2.5 nmol ICV
  cumulative food intake: no significant effect
[10]; male, 7.5 nmol ICV, 2–24 hours post-administration
  cumulative food intake: significant increase in food intake
[10]; male, ICV, metabolic cages, p<0.0001
  cumulative food intake, dose response: dose dependent increase in food intake
[11]; added to saline alone
  solubility in saline: precipitated out
[11]; doses above 7.5 nmol ICV, male mice
  solubility limit on dosing: higher dosing was prevented due to the solubility
[12]; Schild analysis, antagonist
  pA2 at mMC4R: 7.83 and 7.83±0.16
[12]; up to 100 µM
  agonist activity at mMC4R: minimal agonist activity
[13]; female, 2.5 nmol ICV, both dark and light cycles, p<0.01
  average RER: significantly increased
[13]; female, 7.5 nmol ICV
  RER: no effect
[13]; male, 2.5 nmol ICV
  RER: minimal effect
[13]; male, 7.5 nmol ICV, early light cycle 15–18 hrs post-administration
  hourly RER: significantly increased
[13]; male, 7.5 nmol ICV, entire light cycle (14–26 hrs)
  total average RER: No significant effect
[13]; male, 7.5 nmol ICV, first dark cycle (0–14 hrs), p<0.01
  total average RER: increased
[13]; male, 7.5 nmol ICV, first two hours following injection, p<0.01
  total average RER: increased
[13]; male, 7.5 nmol ICV, individual time points 2–7 and 10–14 hours
  hourly RER: increased
[14]; female, trend of increase in food intake
  food intake: not observed
[14]; male
  food intake: an increase in food intake was observed
[15]; female, 2.5 nmol ICV, p<0.001, observed at 5, 6, 15, 21, and 22 hours
  energy expenditure: significant increase in energy expenditure
[15]; female, 7.5 nmol ICV, p<0.05
  total calories burned in 24 hours: significant decrease in total calories burned
[15]; male, 7.5 nmol ICV
  energy expenditure (trend): trended towards decreasing energy expenditure
[15]; male, 7.5 nmol ICV, at 4, 20, 21, 23 and 24 hours, compared to control
  hourly energy expenditure normalized to weight (Kcal/hr/kg): decrease in energy expenditure
[15]; male, ICV
  total calories spent in 24 hours: no effect
[15]; male, doses lower than 7.5 nmol ICV
  energy expenditure: No significant effect

## MTII
[4]; MC3R and MC4R knockout mice, same genotype, ref [15],[16]
  sex difference in food intake effect: no differences reported between male and female mice
[4]; MC3R and MC4R knockout mice, ref [15],[16]
  food intake: decrease food intake

## SHU9119
[6]; at 1 µM, ref [22] (Doering et. al.)
  partial agonism at mMC3R: 50%
[16]; female rats
  blood pressure: no effect on blood pressure
[16]; male rats
  blood pressure: significantly reduced blood pressure
[2]
  effect of ovariectomy or estradiol treatment on food intake after ligand: minimal effects on food intake
[3]
  energy expenditure: decrease energy expenditure
